The subject of experiment [1] is human mast cells. The experiment is described as follows: Antigen-induced cytokine production in ISM-like and healthy mast cells. The following applies: two hours treatment, antigen four hours. Format: cell-based. On the procedure:
(§1) Human mast cells were derived from bone marrow CD34+ cells from six healthy donors for up to eight weeks by culturing CD34+ cells in StemSpan SFEM II (Stem Cell Technologies) supplemented with stem cell factor (SCF; 100 ng/mL; R&D System), IL-6 (R&D Systems), IL-3 (R&D Systems) and 1% penicillin/streptomycin (P/S; Gibco) for the first 10 days and in StemSpan SFEM II supplemented with SCF and IL-6 and 1% P/S for the remaining time in culture. […] Supernatant was collected and histamine levels were measured using a Histamine ELISA kit (Eagle Biosciences). […] Percent of activated mast cells was calculated as number of activated mast cells over the total number of mast cells.
Human mast cells were differentiated from bone marrow CD34+ cells from two healthy donors, cultured and sensitized in ISM-like and healthy mast cell conditions as set forth in Example 4, treated with Compound 128 for two hours and stimulated with antigen for four hours. Supernatant was collected and cytokine levels were measured using the BD Cytometric Bead Array (CBA) human soluble protein master buffer kit (Becton Dickinson) and BD CBA human soluble protein flex sets for IL-8, MCP-1, MIP-1a, IL-13 and IL-10 (Becton Dickinson). […]

The target in another experiment is BTK (Homo sapiens, UniProt Q06187). The experiment is described as follows: MRGPRX2-induced BTK phosphorylation in ISM-like mast cells. The experiment is classed as cell-based. On the set-up: Human mast cells were differentiated from bone marrow CD34+ cells from six healthy donors; endogenous in cells; host or cells: human mast cells differentiated from bone marrow CD34+ cells of healthy donors, cultured with SCF. The following applies: 0.1 μM, C48/80 stimulation. On the procedure:
Human mast cells were differentiated from bone marrow CD34+ cells from four healthy donors and were cultured in the presence of SCF (100 ng/mL) to mimic mast cells in ISM and treated with Compound 128 for two hours prior to stimulation. Mas-related G protein-coupled receptor (MRGPRX2) agonists, Compound 48/80 (C48/80; a product of N-methyl-p-methoxyphenethylamine with formaldehyde) or Substance P (SP) were used to activate the MRGPRX2 pathway. For pBTK test, cells were stimulated with C48/80 (10 μg/mL) for ten minutes at 37° C. and cells were stained. The median fluorescence intensity of phosphorylated BTK was measured. The fold change over unstimulated control for pBTK was calculated. For cytokine test, cells were stimulated with C48/80 (10 μg/mL) or SP (30 μM) for four hours at 37° C. Supernatant was collected and cytokine levels were measured using the BD Cytometric Bead Array (CBA) human soluble protein master buffer kit (Becton Dickinson) and BD CBA human soluble protein flex sets for IL-8, MCP-1, GM-CSF and IL-13 (Becton Dickinson). Cytokine levels were measured and normalized to percent of control, with 0% representing the level of the unstimulated control.

The subject of the next experiment is ISM-like mast cells. The experiment is described as follows: Antigen-induced degranulation (CD63 and histamine) in ISM-like mast cells. The experiment is classed as cell-based, human. The note with it: ISM-like (+SCF) mast cells, two hours treatment prior to stimulation. On the procedure: as §1
Human mast cells were differentiated from bone marrow CD34+ cells from six healthy donors, cultured and sensitized as set forth in Example 4. […] The median fluorescence intensity of phosphorylated BTK was measured. CD63 and histamine levels in these cells were measured and percent activated mast cells were calculated as set forth in Example 4. The percent of stimulated control for pBTK, activated mast cells (CD63+) and histamine levels was calculated. […]

The next experiment concerns mast cells. The experiment is described as follows: Monomeric IgE-mediated degranulation and cytokine production in mast cells. Format: cell-based, human. The following applies: mast cells from a healthy donor, 2 hours treatment, myeloma IgE with SCF. As for the experimental part: Mast cells from a healthy donor were starved of SCF for 18 hours and treated with Compound 128 for 2 hours. Mast cells were stimulated with SCF (100 ng/ml) or myeloma IgE (3 μg/ml; Millipore Sigma) alone or in combination for 30 minutes (CD63 and Histamine) or 24 hours (cytokine production), respectively. For the histamine and cytokine test, supernatant was collected and the levels of histamine and cytokines were measured as set forth in Example 4 for histamine and Example 7 for cytokines. For the CD63 test, the cells were stained for CD63, data was acquired on a flow cytometer and percent activated mast cells calculated as set forth in Example 4. […] The monomeric IgE contribution to degranulation and cytokine production is inhibited by Compound 128.

The subject of experiment [2] is human mast cells. Briefly: ISM-like mast cell chemotaxis towards conditioned media (Transwell). The following applies: conditioned media from ISM-like mast cells treated two hours. The experiment is classed as cell-based. On the procedure:
Human mast cells were differentiated from bone marrow CD34+ cells from four healthy donors as set forth in Example 4. Cells were used to produce conditioned media in ISM-like conditions. Conditioned media was the supernatant collected from mast cells cultured with stem cell factor (100 ng/ml), sensitized with NP-IgE (0.1 μg/mL) for 18 hours, treated with Compound 128 for two hours, and stimulated with NP-BSA (antigen; 0.1 μg/mL) for four hours. Migration of mast cells in the top chamber on Transwell […] inserts (Corning) towards the antigen-stimulated conditioned media in the bottom chamber was quantified after four hours using the CellTiter-Glo™ Luminescent Cell Viability Assay Kit (Promega). The amount of luminescence is correlated with live cell numbers. Fold change over the non-activated control was calculated.

BTK, sequence (Q06187 whole entry): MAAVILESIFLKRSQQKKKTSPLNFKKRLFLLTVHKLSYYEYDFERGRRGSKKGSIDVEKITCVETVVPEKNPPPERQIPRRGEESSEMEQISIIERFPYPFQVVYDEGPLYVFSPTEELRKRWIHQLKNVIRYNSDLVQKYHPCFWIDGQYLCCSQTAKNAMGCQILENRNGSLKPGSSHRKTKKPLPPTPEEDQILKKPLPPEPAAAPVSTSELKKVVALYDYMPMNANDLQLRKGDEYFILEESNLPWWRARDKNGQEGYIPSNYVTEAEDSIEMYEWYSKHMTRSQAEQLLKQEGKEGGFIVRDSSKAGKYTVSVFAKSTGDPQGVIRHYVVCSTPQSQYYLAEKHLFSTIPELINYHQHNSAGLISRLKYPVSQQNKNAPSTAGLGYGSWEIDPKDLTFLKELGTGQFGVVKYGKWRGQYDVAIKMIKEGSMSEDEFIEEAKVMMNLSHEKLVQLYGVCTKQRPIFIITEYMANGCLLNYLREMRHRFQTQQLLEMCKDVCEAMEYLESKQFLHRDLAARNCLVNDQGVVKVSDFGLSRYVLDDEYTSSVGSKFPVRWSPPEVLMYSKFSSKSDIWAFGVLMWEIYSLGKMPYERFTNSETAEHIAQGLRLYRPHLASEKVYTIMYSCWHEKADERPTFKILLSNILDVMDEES

`C=CC(=O)N1CCC(F)(CNc2ncnc(N)c2-c2ccc(Oc3ccccc3)cc2)CC1` [Compound 128, 1-(4-(((6-amino-5-(4-phenoxyphenyl)pyrimidin-4-yl)amino)methyl)-4-fluoropiperidin-1-yl)prop-2-en-1-one]: the “IgE-mediated cytokine production (IL-8, MCP-1, MIP-1a, IL-13, IL-10)” value in the experiment with human mast cells [1] was “inhibited”. In addition, on BTK, the “MRGPRX2-induced BTK phosphorylation” value is “inhibited”. In addition, the “IgE-mediated degranulation (CD63 and histamine)” value in the experiment on ISM-like mast cells is listed as “potently inhibits”. Also, in the experiment on mast cells, the “monomeric IgE contribution to degranulation and cytokine production” value is on record as “inhibited”. The “chemoattractant activity of mast cells (chemotaxis, fold change over non-activated control)” value in the experiment on human mast cells [2] is “inhibited”.

For the origin of these results see patent US20250360130A1, “METHODS OF TREATING INDOLENT SYSTEMIC MASTOCYTOSIS” (Telios Pharma Inc., priority 2024, published 2025).
